Laboratory results from patent US20220040280A1, “INHIBITORS AND USES THEREOF” (UNIVERSITY OF CANBERRA, priority 2016, published 2022).

Key:
[1] = system: LSD1 phosphorylated at serine 111 (LSD1s111p); experiment: LSD1s111p in MCF7 cells treated with PKC inhibitors, confocal microscopy; assay type: cell-based, human; settings: FIG. 26
Experimental: (§1) Confocal laser scanning microscopy was performed on either MDA-MB-231 cells treated with vehicle alone or MCF7 cells treated with vehicle alone or PMA for 60 hours. To assess the effect of the PKC inhibitors, C27 (Compound 27; (R)-2-((S)-4-(3-chloro-5-fluoro-6-(1H-pyrazolo[3,4-b]pyridine-3-yl)pyridine-2-yl)piperazin-2-yl)-3-methylbutan-2-ol; see Jimenez et al. (2013) J. Med. Chem., 56(5): 1799-1810) or bisindolylmaleimide (BIM), cells were then treated with C27, BIM or vehicle. Cells were fixed with 3.7% formaldehyde and permeabilized with 2% Triton-X-100, and were then probed with primary rabbit antibody to PKC-θ and a primary mouse antibody to LSD1 or LSD1 phosphorylated at serine 111 (LSD1s111p), respectively, followed by the corresponding secondary antibody conjugated to Alexa-Fluor 488 or Alexa-Fluor 568. Total nuclear fluorescence (TNFI) values for non-stimulated and stimulated MCF7 and MDA-MB-231 cells were calculated. […] The plot-profile feature of ImageJ was used to plot the fluorescence signal intensity along a single line spanning the nucleus (n=5 lines per nucleus, 5 individual cells). The average fluorescence signal intensity for the indicated pair of antibodies was plotted for each point on the line with SE. […] The PCC was determined for each plot profile, which indicates the strength of relation between the two fluorochrome signals for at least 20 individual cells ±SE. […]

[2] = system: LSD1 phosphorylated at serine 111 (LSD1s111p); experiment: LSD1s111p in MDA-MB-231 cells treated with PKC inhibitors, confocal microscopy; assay type: cell-based, human; settings: FIG. 26
Experimental: as §1

LSD1 [3] = target: T1, LSD1 (Homo sapiens, UniProt O60341); experiment: Nuclear LSD1 in MDA-MB-231 cells treated with LSD1 inhibitors, confocal microscopy; assay type: cell-based; settings: FIG. 30
T1 construct: endogenous in cells; host or cells: MCF7 (non-stimulated or PMA-stimulated) and MDA-MB-231 breast cancer cells
Experimental: (§2) Confocal laser scanning microscopy was performed on either MDA-MB-231 cells treated with vehicle alone or MCF7 cells treated with vehicle alone or PMA for 60 h, and subsequently treated with a test inhibitor or vehicle alone. Test inhibitors include LSD1 siRNA or LSD1 catalytic inhibitors NCD36 (2-[N-(4-phenylbenzenecarbonyl)]amino-6-(trans-2-phenylcyclopropan-1-amino)-N-(3-methylbenzyl)hexanamide hydrochloride) or pargyline (Parg). Cells were fixed with 3.7% formaldehyde and permeabilized with 2% Triton-X-100, and then probed with a primary mouse antibody to LSD1 and a primary goat antibody to SNAIL, respectively, followed by the corresponding secondary antibodies conjugated to Alexa-Fluor 488 and […], respectively. TNFI values for MDA-MB-231, non-stimulated MCF7 and stimulated MCF7 cells were calculated. Data shown represent the mean±SE for at least 20 individual cells.

SNAIL [4] = settings: CTCs from metastatic breast cancer patients, in all but one patient, FIG. 17
Experimental: (§4) Cells were permeabilised by incubating with 2% Triton X-100 for 20 min. Cells were probed with either rabbit antibodies to LSD1s111p (Merck ABE1462), EGFR (AB2430), MET (ab51067), PD-L1 (sc-50298), goat antibodies to PD-L1 (sc-19091), SC-14033), (sc-19096), mouse antibodies to Cytokeratin (Miltenyi 130-090-866), CSV (Abnova H00007431-M08), vimentin (SC-6260) followed by visualisation with secondary anti mouse Alexa-Fluor 568 (A10037), secondary anti rabbit Alexa-Fluor 488 (A21206) or secondary anti goat Alexa-Fluor 633 (A21082). Cover slips were mounted on glass microscope slides with ProLong Diamond Antifade© reagent (Life Technologies). Antibody staining was localised by confocal laser scanning microscopy. Single 0.5 μm sections were obtained using a Nikon x 60 oil immersion lens on the Nikon C1 plus confocal system running NIS-Elements AR 3.2 software. […] Digital confocal images were analysed using ImageJ software (ImageJ, NIH, Bethesda, Md., USA) to determine the nuclear/cytoplasmic fluorescence ratio (Fn/c) using the equation: Fn/c=(Fn−Fb)/(Fc−Fb), where Fn is nuclear fluorescence, Fc is cytoplasmic fluorescence, and Fb is background fluorescence or the Total Nuclear Fluorescence (TNFI), the Total Cytoplasmic Fluorescence (TCFI) or Total cell fluorescence. […] Florescence intensity was also measured in a minimum of n=10 cells for each sample set. […]

PD-L1 [5] = settings: CTCs from metastatic breast cancer patients, in all but one patient, FIG. 17
Experimental: as §4

PD-L2 = settings: CTCs from two metastatic breast cancer patient liquid biopsies, FIG. 16
Experimental: as §4

LSD1 [6] = target: T1, LSD1; experiment: Nuclear LSD1 in MCF7 cells treated with LSD1 inhibitors, confocal microscopy; assay type: cell-based; settings: MCF7 cells stimulated with PMA for 60 hours, FIGS. 28 and 29
Experimental: as §2

SNAIL [7] = experiment: Nuclear SNAIL in MCF7 cells treated with LSD1 inhibitors, confocal microscopy; assay type: cell-based, human; settings: MCF7 cells stimulated with PMA for 60 hours, FIGS. 28 and 29
Experimental: as §2

cytokeratin [8] = settings: CTCs from two metastatic breast cancer patient liquid biopsies, FIG. 16
Experimental: as §4

SNAIL [9] = experiment: Nuclear SNAIL in MDA-MB-231 cells treated with LSD1 inhibitors, confocal microscopy; assay type: cell-based, human; settings: FIG. 30
Experimental: as §2

LSD1s111p [10] = target: T2, LSD1s111p (Homo sapiens, UniProt O60341); experiment: Confocal microscopy of LSD1s111p in patient circulating tumor cells; assay type: cell-based; settings: CTCs from two metastatic breast cancer patient liquid biopsies, FIG. 16
T2 construct: endogenous in cells; host or cells: circulating tumor cells from metastatic breast cancer patient blood
From the text: (§3) Cells were probed with either rabbit antibodies to LSD1s111p (Merck ABE1462), EGFR (AB2430), MET (ab51067), PD-L1 (sc-50298), goat antibodies to PD-L1 (sc-19091), SC-14033), (sc-19096), mouse antibodies to Cytokeratin (Miltenyi 130-090-866), CSV (Abnova H00007431-M08), vimentin (SC-6260) followed by visualisation with secondary anti mouse Alexa-Fluor 568 (A10037), secondary anti rabbit Alexa-Fluor 488 (A21206) or secondary anti goat Alexa-Fluor 633 (A21082).

SNAIL [11] = experiment: Confocal microscopy of SNAIL in xenografted MDA-MB-231 cells; assay type: in vivo, mouse; settings: xenograft MDA-MB-231 cells; Abraxane 60 mg/kg, Docetaxel 10 mg/kg; relative to vehicle
From the text: as §3

LSD1s111p [12] = experiment: Confocal microscopy of LSD1s111p in xenografted MDA-MB-231 cells; assay type: in vivo, mouse; settings: xenograft MDA-MB-231 cells; Abraxane 60 mg/kg, Docetaxel 10 mg/kg, Phenelzine 41 mg/kg; relative to vehicle control
From the text: as §3
The nuclear intensity of LSD1s111p was measured using confocal laser scanning microscopy in xenografted MDA-MB-231 cells treated with vehicle alone or Abraxene (60 mg/kg) or Docetaxel (10 mg/kg). Cells were fixed with 3.7% formaldehyde and permeabilized with 2% Triton-X-100, and then probed with a primary rabbit antibody to LSD1s111p, followed by the corresponding secondary antibody conjugated to Alexa-Fluor 488. Total nuclear fluorescence (TNFI) values for xenografted MDA-MB-231 cells were calculated. Data shown represents the mean±SE for at least 20 individual cells.

EGFR = experiment: Confocal microscopy of EGFR in xenografted MDA-MB-231 cells; assay type: in vivo, mouse; settings: xenograft MDA-MB-231 cells; Abraxane 60 mg/kg, Docetaxel 10 mg/kg, Phenelzine 41 mg/kg; relative to vehicle control
From the text: as §3

MET = experiment: Confocal microscopy of MET in xenografted MDA-MB-231 cells; assay type: in vivo, mouse; settings: xenograft MDA-MB-231 cells; Abraxane 60 mg/kg, Docetaxel 10 mg/kg, FIG. 11
From the text: as §3

cytokeratin [13] = experiment: Confocal microscopy of cytokeratin in xenografted MDA-MB-231 cells; assay type: in vivo, mouse; settings: xenograft MDA-MB-231 cells; Abraxane 60 mg/kg, Phenelzine 41 mg/kg, FIG. 9
From the text: as §3

PD-L1 [14] = experiment: Confocal microscopy of PD-L1 in xenografted MDA-MB-231 cells; assay type: in vivo, mouse; settings: xenograft MDA-MB-231 cells; Abraxane 60 mg/kg, Phenelzine 41 mg/kg, FIG. 9
From the text: as §3

[15] = system: cell surface vimentin (CSV); experiment: Confocal microscopy of cell surface vimentin in xenografted MDA-MB-231 cells; assay type: in vivo, mouse; settings: xenograft MDA-MB-231 cells; Abraxane 60 mg/kg, Phenelzine 41 mg/kg, FIG. 10
From the text: as §3

Row | nuclear fluorescence signal of LSD1 (LSD1 [3]) | nuclear fluorescence signal of LSD1 (LSD1 [6]) | expression of LSD1s111p (TCFI) (LSD1s111p [10]) | Compound | LSD1 phosphorylation (LSD1s111p, TNFI) [1] | LSD1 phosphorylation (LSD1s111p, TNFI) [2] | SNAIL expression (total cell fluorescence) (SNAIL [4]) | PD-L1 expression (total cell fluorescence) (PD-L1 [5]) | expression of PD-L2 (TCFI) (PD-L2) | nuclear fluorescence signal of SNAIL (SNAIL [7]) | expression of cytokeratin (TCFI) (cytokeratin [8]) | nuclear fluorescence signal of SNAIL (SNAIL [9]) | LSD1s111p expression, nuclear fluorescent signal (TNFI) (LSD1s111p [12]) | EGFR nuclear expression (TNFI) (EGFR) | further results
1 |  |  |  | CC(C)[C@@](C)(O)[C@@H]1CN(c2nc(-c3n[nH]c4ncccc34)c(F)cc2Cl)CCN1 [Peptide C27, (R)-2-((S)-4-(3-chloro-5-fluoro-6-(1H-pyrazolo[3,4-b]pyridine-3-yl)pyridine-2-yl)piperazin-2-yl)-3-methylbutan-2-ol] | significantly abrogated | significantly abrogated |  |  |  |  |  |  |  |  | 
2 | significantly abrogated | significantly abrogated | significant knockdown | C#CCN(C)Cc1ccccc1 [Pargyline, pargyline] |  |  | significant knockdown | significant knockdown | significant knockdown | significantly abrogated | significant knockdown | significantly abrogated |  |  | 
3 | significantly abrogated | significantly abrogated |  | Cc1cccc(CNC(=O)C(CCCCN[C@@H]2C[C@H]2c2ccccc2)NC(=O)c2ccc(-c3ccccc3)cc2)c1.Cl (relative stereo) [NCD36, 2-[N-(4-phenylbenzenecarbonyl)]amino-6-(trans-2-phenylcyclopropan-1-amino)-N-(3-methylbenzyl)hexanamide hydrochloride] |  |  |  |  |  | significantly abrogated |  | significantly abrogated |  |  | 
4 |  |  |  | bisindolylmaleimide [BIM] | significantly abrogated | significantly abrogated |  |  |  |  |  |  |  |  | 
5 |  |  |  | CC(=O)O[C@@]12CO[C@@H]1C[C@H](O)[C@@]1(C)C(=O)[C@H](O)C3=C(C)[C@@H](OC(=O)[C@H](O)[C@@H](NC(=O)OC(C)(C)C)c4ccccc4)C[C@@](O)([C@@H](OC(=O)c4ccccc4)[C@H]21)C3(C)C [Docetaxel] |  |  |  |  |  |  |  |  | significantly increased | significantly increased | SNAIL nuclear fluorescent signal (TNFI) (SNAIL [11]): significantly increased; MET nuclear expression (TNFI) (MET): significantly increased
6 |  |  | significant knockdown | NNCCc1ccccc1 [Phenelzine, (+)-2-phenylethylhydrazine] |  |  | significant knockdown | significant knockdown | significant knockdown |  | significant knockdown |  | inhibitory effect | inhibitory effect | cytokeratin expression (cytokeratin [13]): abrogated; PD-L1 expression in the cytoplasm (TCFI) (PD-L1 [14]): significantly abrogated; PD-L1 expression in the nucleus (TNFI) (PD-L1 [14]): significantly abrogated; PD-L1 nuclear bias (Fn/c) (PD-L1 [14]): higher; total PD-L1 expression (PD-L1 [14]): significantly reduced; cell surface vimentin (CSV) cytoplasmic expression (TCFI) [15]: abrogated
